Laboratory results published in patent publication US8980226B2, “Aerosolized fosfomycin/aminoglycoside combination for the treatment of bacterial respiratory infections” (Gilead Sciences, Inc., priority 2004, dated 2015).
Where two headings read alike, the source gives them in different places.

Columns and labels:
Assay type in all cases: cell-based
[1] = tested on: 100 P. aeruginosa strains isolated from lung sputum samples from cystic fibrosis patients; assay: MIC50 and MIC90 for 100 P. aeruginosa strains, without mucin; settings: Pseudomonas aeruginosa
Procedure: (§1) The MICs of fosfomycin alone, tobramycin alone, or combinations of fosfomycin plus tobramycin were determined by the agar-plate dilution method according to NCCLS guidelines (NCCLS, 2003). Bacterial strains were streaked onto Trypic Soy Agar plates (PML Microbiologicals, Wilsonville, Oreg.) containing 5% defibrinated sheep blood (hereafter referred to as blood agar plates) and incubated overnight at 35° C. Two to three bacterial colonies from the overnight cultures were inoculated into 3 mL of sterile normal saline, vortexed briefly, and adjusted to a 0.5 McFarland standard (NCCLS, 2003). The bacterial suspension was diluted 1:40 in sterile normal saline and served as the inoculum. Mueller-Hinton agar plates (hereafter referred to as MHA) were prepared by combining 16 g of agarose (Becton-Dickinson, Sparks, Md.), 22 g of Mueller-Hinton broth powder (Becton-Dickinson, Sparks, Md.), and adjusted to 1 L with distilled water. The agar was sterilized by autoclaving, cooled to 55° C., and supplemented with 25 μg/mL of glucose-6-phosphate (Sigma-Aldrich, St. Louis, Mo.). Twenty-five mL of cooled agar was aliquoted into 50 mL conical tubes and supplemented with appropriate concentrations of antibiotic to achieve concentrations ranging from 0.06 μg/mL to 512 μg/mL. After gently mixing the agar and antibiotic, the suspension was poured into sterile 100 mm petri dishes and allowed to solidify at room temperature. The antibiotic agar plates were inoculated with approximately 2×10^4 CFU/spot with a 48-point inoculator (Sigma-Aldrich, St. Louis, Mo.). The MIC was defined as the lowest concentration of antibiotic (s) that prevented visible growth after incubation for 18-20 hours at 35° C. The efficacy of a particular antibiotic or antibiotic combination on large populations of P. aeruginosa was determined by calculating the MIC50 and MIC90 values. The MIC50 value was defined as the concentration of antibiotic(s) which inhibited 50% of the P. aeruginosa strains. The MIC90 value was defined as the concentration of antibiotic(s) which inhibited 90% of the P. aeruginosa strains (Wiedemann and Grimm, 1996).

P. aeruginosa = settings: for Frequency of Resistance: plates with 128 μg/mL fosfomycin, 8 μg/mL tobramycin, or both
Procedure: The frequency of single-step spontaneous resistance mutation was determined for 5 susceptible P. aeruginosa strains. The bacterial inoculum was prepared by inoculating 5 mL of CAMHB with 2-3 bacterial colonies and incubating at 35° C. in a shaking water bath (250 rpm) for 18 h. A 1:20 dilution of the overnight culture was made into 50 mL of fresh CAMHB in a 125 ml erlenmyer flask and incubated at 35° C. in a shaking waterbath (250 rpm) for 8 hours. Cultures were centrifuged at 2,500 rpm, room temperature, for 20 min. The supernatant was decanted off and the cell pellet from the 50 mL of culture resuspended in 500 μl-1000 μl CAMHB. The CFU/mL in the bacterial suspension was determined by making 10-fold serial dilutions in sterile normal saline, and spreading 100 μl aliquots on blood agar plates. Culture plates were incubated at 35° C. for 18-24 hours and the number of colonies enumerated manually. One hundred microliters of bacterial cell suspension (approximately 10^9 CFU) was spread onto MHA plates containing 128 μg/mL of fosfomycin, 8 μg/mL of tobramycin, or 128 μg/mL of fosfomycin plus 8 μg/mL of tobramycin. The culture plates were incubated at 35° C. for 48-72 hours and the number of colonies on each plate was enumerated manually. The frequency of resistance was calculated by dividing the number of bacteria growing at the defined antibiotic concentration by the number of bacteria in the original inoculum. Representative mutants were evaluated for changes in MIC to fosfomycin alone, tobramycin alone, and fosfomycin plus tobramycin combinations as described in Example 5, Method A.

B. cepacia = assay: MIC, agar-plate dilution method
Procedure: (§2) “Minimal inhibitory concentration (MIC)” means the lowest concentration of antibiotic (s) that prevents visible growth after incubation for 18-20 hours at 35° C.
(§3) The efficacy of antibiotics and antibiotic combinations against Gram-positive and Gram-negative bacteria representative of species that cause respiratory infections in patients with cystic fibrosis, bronchiectasis, sinusitis, and ventilator-associated pneumonia were evaluated in MIC assays. P. aeruginosa strains were isolated from lung sputum samples collected from cystic fibrosis patients, blood cultures, respiratory tract infections, and skin or soft tissue infections. E. coli, H. influenzae, B. cepacia, S. maltophilia, K. pneumoniae, M. catarrhalis, S. aureus, S. pneumoniae, S. pyogenes, and E. faecalis were isolated from respiratory tract infections. E. coli ATCC 25922, P. aeruginosa ATCC 27853, and S. aureus ATCC 29213 were used as quality control stains.
as §1

S. maltophilia = assay: MIC, agar-plate dilution method; settings: Stenotrophomonas maltophilia
Procedure: as §2, §3, §1

S. pyogenes = assay: MIC, agar-plate dilution method; settings: Streptococcus pyogenes
Procedure: as §2, §3, §1

M. catarrhalis = assay: MIC, agar-plate dilution method
Procedure: as §2, §3, §1

S. pneumoniae = assay: MIC, agar-plate dilution method; settings: Streptococcus pneumoniae
Procedure: as §2, §3, §1

K. pneumoniae = assay: MIC, agar-plate dilution method
Procedure: as §2, §3, §1

E. coli = assay: MIC, agar-plate dilution method; settings: Escherichia coli
Procedure: as §2, §3, §1

[2] = tested on: 100 P. aeruginosa strains isolated from lung sputum samples from cystic fibrosis patients; assay: MIC50 and MIC90 for 100 P. aeruginosa strains, CF mucin binding model (+mucin); settings: Pseudomonas aeruginosa; for MIC90: read-out: MIC90 Mucin (+)
Procedure: as §1
The MICs of fosfomycin alone, tobramycin alone, or combinations of fosfomycin plus tobramycin were determined for P. aeruginosa strains in the presence of porcine gastric mucin to evaluate the effect of mucin and protein binding on antibiotic activity. Methodologies were identical to that described in Example 5, Method A, with the exception that 2% (weight/volume) porcine gastric mucin (Sigma Chemical Co., St. Louis, Mo.) was added to the MHA prior to autoclaving.

[3] = mutants of P. aeruginosa ATCC 27853
[4] = mutants of P. aeruginosa COR-002
[5] = mutants of P. aeruginosa COR-003
[6] = mutants of P. aeruginosa COR-013
[7] = mutants of P. aeruginosa COR-014
[8] = S. maltophilia COR-083, read-out: MIC
[9] = Moraxella catarrhalis, M. catarrhalis COR-109, read-out: MIC
[10] = Klebsiella pneumoniae, K. pneumoniae COR-042, read-out: MIC
[11] = 100 P. aeruginosa strains, 2% porcine gastric mucin

| SMILES | MIC50 [1] [µg/mL] | MIC90 [1] [µg/mL] | Frequency of Resistance (P. aeruginosa; P. aeruginosa ATCC 27853) | Frequency of Resistance (P. aeruginosa; P. aeruginosa COR-002) | Frequency of Resistance (P. aeruginosa; P. aeruginosa COR-003) | Frequency of Resistance (P. aeruginosa; P. aeruginosa COR-013) | Frequency of Resistance (P. aeruginosa; P. aeruginosa COR-014) | Fold Increase in MIC after a single exposure to antibiotic (P. aeruginosa; [3]) | Fold Increase in MIC after a single exposure to antibiotic (P. aeruginosa; [4]) | Fold Increase in MIC after a single exposure to antibiotic (P. aeruginosa; [5]) | Fold Increase in MIC after a single exposure to antibiotic (P. aeruginosa; [6]) | Fold Increase in MIC after a single exposure to antibiotic (P. aeruginosa; [7]) | MIC (S. maltophilia) [µg/mL] | MIC (S. maltophilia; [8]) [µg/mL] | MIC (S. pyogenes; S. pyogenes COR-104) [µg/mL] | MIC (S. pyogenes; S. pyogenes COR-105) [µg/mL] | MIC (M. catarrhalis; M. catarrhalis COR-113) [µg/mL] | MIC (M. catarrhalis; [9]) [µg/mL] | MIC (S. pneumoniae; S. pneumoniae COR-061) [µg/mL] | MIC (S. pneumoniae; S. pneumoniae COR-068) [µg/mL] | also measured |
| --- | --- | --- | --- | --- | --- | --- | --- | --- | --- | --- | --- | --- | --- | --- | --- | --- | --- | --- | --- | --- | --- |
| C[C@@H]1O[C@@H]1P(=O)(O)O [Fosfomycin] | 64 | ≥ 512 | 4.1 × 10^−5 | 1.4 × 10^−3 | 5.5 × 10^−4 | 6.4 × 10^−3 | 1.5 × 10^−5 | 128 | >256 | >256 | >64 | >512 | 128 | 64 | 64 | 16 | 4 | 4 | 32 | 8 | MIC (B. cepacia; B. cepacia COR-098): ≧2048 μg/mL; MIC (B. cepacia; Burkholderia cepacia, B. cepacia COR-090, read-out: MIC): ≥ 2050 µg/mL; MIC (S. maltophilia; S. maltophilia COR-087, read-out: MIC): ≥ 512 µg/mL; MIC (K. pneumoniae; Klebsiella pneumoniae, K. pneumoniae COR-049): 128 µg/mL; MIC (K. pneumoniae; [10]): 8 µg/mL; MIC (E. coli; E. coli COR-032): 1 µg/mL; MIC (E. coli; E. coli COR-039): 64 µg/mL; MIC (E. coli; E. coli COR-040): 1 µg/mL; MIC90 [2]: 128 µg/mL; MIC50 [2, 11]: 64 µg/mL |
| NC[C@H]1O[C@H](O[C@H]2[C@H](O)[C@@H](O[C@H]3O[C@H](CO)[C@@H](O)[C@H](N)[C@H]3O)[C@H](N)C[C@@H]2N)[C@H](N)C[C@@H]1O [Tobramycin] | 2 | 16 | 3.4 × 10^−6 | 6.7 × 10^−6 | 3.2 × 10^−6 | 2.6 × 10^−6 | 5.0 × 10^−6 | 1 | 1 | 2 | 8 | 16 | 128 | 512 | 32 | 64 | 8 | 8 | 64 | 16 | increase in MIC of mutants after a single exposure (P. aeruginosa; range over the P. aeruginosa mutants): 2-16 fold; MIC (B. cepacia; Burkholderia cepacia, B. cepacia COR-090): 128 µg/mL; MIC (B. cepacia; Burkholderia cepacia, B. cepacia COR-098, read-out: MIC): 64 µg/mL; MIC (S. maltophilia; S. maltophilia COR-082, read-out: MIC): 4 µg/mL; MIC (K. pneumoniae; K. pneumoniae COR-049): 0.5 µg/mL; MIC (K. pneumoniae; [10]): 0.5 µg/mL; MIC (E. coli; E. coli COR-032): 0.5 µg/mL; MIC (E. coli; E. coli COR-039): 0.25 µg/mL; MIC (E. coli; E. coli COR-040): 32 µg/mL; MIC50 [2, 11]: 16 µg/mL; MIC90 [2, 11]: 64 µg/mL |
